Experimental data reported in patent US4968713A, “Certain imidazole compounds as transglutaminase inhibitors” (Merck & Co., Inc., priority 1989, dated 1990).
Structures can show the parent of a compound that is named as a salt.

Target: T1, Factor XIIIa (Homo sapiens, UniProt P00488)
T1 construct: from tissue; host or cells: human plasma
T1 sequence (P00488 39-732 limits assumed): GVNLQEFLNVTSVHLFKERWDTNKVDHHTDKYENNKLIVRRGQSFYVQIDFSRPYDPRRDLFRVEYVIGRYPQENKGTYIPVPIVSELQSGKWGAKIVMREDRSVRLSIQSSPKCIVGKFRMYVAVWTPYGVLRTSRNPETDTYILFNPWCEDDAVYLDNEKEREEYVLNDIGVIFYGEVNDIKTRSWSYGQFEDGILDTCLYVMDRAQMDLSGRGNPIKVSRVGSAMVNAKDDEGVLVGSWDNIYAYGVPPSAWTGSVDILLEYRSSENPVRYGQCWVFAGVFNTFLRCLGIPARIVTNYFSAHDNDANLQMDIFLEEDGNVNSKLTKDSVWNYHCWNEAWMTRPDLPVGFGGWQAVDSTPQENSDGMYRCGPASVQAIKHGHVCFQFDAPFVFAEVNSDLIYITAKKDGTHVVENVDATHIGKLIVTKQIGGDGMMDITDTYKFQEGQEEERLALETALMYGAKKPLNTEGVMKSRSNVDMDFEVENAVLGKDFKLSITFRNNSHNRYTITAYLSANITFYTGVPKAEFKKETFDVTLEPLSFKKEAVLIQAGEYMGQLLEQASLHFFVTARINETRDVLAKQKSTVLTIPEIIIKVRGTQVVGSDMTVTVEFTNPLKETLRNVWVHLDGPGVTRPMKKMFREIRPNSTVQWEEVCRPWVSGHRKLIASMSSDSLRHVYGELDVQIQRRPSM
Experiment: Factor XIIIa inhibitor assay (incorporation of 14C-putrescine into casein)
Assay type: biochemical
Conditions: for inhibition at 0.1 µM: @ 100 nM
Description: The Factor XIIIa inhibitor assay is based on the incorporation of ^14 C-putrescine into casein catalyzed by Factor XIIIa. The assay is carried out employing the procedure described in Methods in Enzymology, Vol. 45, Ch 15., pages 177-191 (1976) and using Factor XIII (F XIII) isolated from human plasma. The procedure is summarized briefly and schematically illustrated as follows: [drawing 9] Factor XIII assay mixtures are prepared by adding stepwise, appropriately prepared solutions of thrombin and dithiothreitol (DTT) to a mixture comprising Factor XIII at 140 μg/mL in glycerol/water and tris(hydroxymethyl)aminomethane hydrochloride (Tris.HCl). To a portion of the mixture is added calcium chloride as source of calcium ions required for enzyme activity and to the remaining mixture is added, instead of calcium ions, ethylenediaminetetraacetic acid (EDTA) which serves as a blank for background. A substrate mixture is prepared from ^14 C-putrescine and N,N-dimethylcasein. The assay tubes and control tubes are charged with the substrate mixture and incubated at 37° C. for 20 minutes. Samples are withdrawn from each tube, spotted onto a filter disk which is then immersed in ice cold trichloroacetic acid solution to precipitate the casein on the filter. The filter is then washed to remove unincorporated or free ^14 C-putrescine and after drying is counted for ^14 C-putrescine incorporated to casein from which percent activity and/or inhibition can be calculated.

[1] = read-out: Percent inhibition (Molar concn)

**Q.** Which inhibition at 0.1 µM [1] does the source give for `CCC(=O)CSc1n(C)c(C)c(C)[n+]1C` [CH3, CH3, CH3, CH3, CH3, CF3 SO3^-] here?
**A.** Its inhibition at 0.1 µM is 93%.

**Q.** `CCCc1c(CCC)[n+](C)c(SCC(C)=O)n1C` [H, CH3, C3 H7, C3 H7, CH3, CF3 SO3^-, 1,3-Dimethyl-4,5-di(n-propyl)-2-[(2-oxopropyl)thio]imidazolium trifluoromethylsulfonate] was tested. Which inhibition at 0.1 µM [1] did it give?
**A.** The inhibition at 0.1 µM was 86%.

**Q.** Which inhibition at 4 µM (@ 4 μM, read-out: Percent inhibition (Molar concn)) does the source give for `CCCc1nc(SCC(C)=O)n(C)c1C` [H, CH3, CH3, C3 H7, --, HCl] here?
**A.** The inhibition at 4 µM was 46%.

**Q.** With `CC(=O)CSc1nc(C)c(C)n1C` [H, CH3, CH3, CH3, --, HCl, 1,4,5-Trimethyl-2[(2-oxopropyl)thio]imidazole] as the compound, how does the inhibition at 3.7 µM (@ 3.7 μM, read-out: Percent inhibition (Molar concn)) read?
**A.** The inhibition at 3.7 µM was 76%.

**Q.** For `CC(=O)CSc1n(C)c(C)c(C)[n+]1C` [H, CH3, CH3, CH3, CH3, CF3 SO3^-, 1,3,4,5-tetramethyl-2[(2-oxopropyl)thio]imidazolium trifluoromethylsulfonate], which inhibition at 0.08 µM (@ 80 nM, read-out: Percent inhibition (Molar concn)) is on record?
**A.** Its inhibition at 0.08 µM is 95%.

**Q.** For `CC(=O)CSc1n(C)c(C)c(C)[n+]1C.[Cl-]` [H, CH3, CH3, CH3, CH3, Cl^-, 1,3,4,5-Tetramethyl-2[(2-oxopropyl)thio]imidazolium chloride], which “Percent inhibition (Molar concn)” value (@ 80 nM) is on record?
**A.** The value was 95%.

**Q.** With `CC(=O)CSc1ncc(C)n1C` [H, CH3, CH3, H, --, HCl, 1,5-Dimethyl-2[(2-oxopropyl)thio]imidazole] as the compound, how does the inhibition at 2 µM (@ 2 μM, read-out: Percent inhibition (Molar concn)) read?
**A.** Its inhibition at 2 µM is 47%.

**Q.** `CC(=O)CSc1n(C)c(C)c[n+]1C` [H, CH3, CH3, H, CH3, CF3 SO3^-, 1,3,5-Trimethyl-2[(2-oxopropyl)thio]imidazolium trifluoromethylsulfonate] was tested. Which inhibition at 0.1 µM [1] did it give?
**A.** The inhibition at 0.1 µM was 90%.

**Q.** Which inhibition at 0.15 µM (@ 0.15 μM, read-out: Percent inhibition (Molar concn)) does the source give for `CC(=O)CSc1nccn1C` [H, CH3, H, H, --, --] here?
**A.** The inhibition at 0.15 µM was 40%.

**Q.** `CC(=O)CSc1n(C)cc[n+]1C` [H, CH3, H, H, CH3, Cl^-] was tested. Which inhibition at 0.313 µM (@ 313 nM, read-out: Percent inhibition (Molar concn)) did it give?
**A.** Its inhibition at 0.313 µM is 67%.

**Q.** For `CC(=O)CSc1n(C)cc[n+]1C` [H, CH3, H, H, CH3, I^-], which inhibition at 0.11 µM (@ 110 nM, read-out: Percent inhibition (Molar concn)) is on record?
**A.** Its inhibition at 0.11 µM is 44%.

**Q.** Which inhibition at 1 µM (@ 1.0 μM, read-out: Percent inhibition (Molar concn)) does the source give for `CC(=O)CSc1n(C)c(C(C)C)c(C(C)C)[n+]1C` [H, CH3, iPr, iPr, CH3, CF3 SO3^-] here?
**A.** The inhibition at 1 µM was 44%.
